Assays:
SR = assay: Growth inhibition of human SR cells incubated for 48 hrs by sulforhodamine B assay; type: functional, cell-based
NCI-H322M [1] = assay: Growth inhibition of human NCI-H322M cells incubated for 48 hrs by sulforhodamine B assay; type: functional, cell-based
SNB-75 = assay: Growth inhibition of human SNB75 cells incubated for 48 hrs by sulforhodamine B assay; type: functional, cell-based; conditions: SNB-75, 48 h
U-251 = assay: Growth inhibition of human U251 cells incubated for 48 hrs by sulforhodamine B assay; type: functional, cell-based; conditions: U-251, 48 h
LOX IMVI [2] = assay: Growth inhibition of human LOXIMVI cells incubated for 48 hrs by sulforhodamine B assay; type: functional
Malme-3M = assay: Growth inhibition of human MALME-3M cells incubated for 48 hrs by sulforhodamine B assay; type: functional, cell-based
SK-MEL-28 = assay: Growth inhibition of human SK-MEL-28 cells incubated for 48 hrs by sulforhodamine B assay; type: functional, cell-based; conditions: SK-MEL-28, 48 h
IGROV-1 [3] = assay: Growth inhibition of human IGROV1 cells incubated for 48 hrs by sulforhodamine B assay; type: functional, cell-based; conditions: IGROV-1, 48 h
RPMI-8226 = assay: Growth inhibition of human RPMI8226 cells assessed as cell growth at 0.01 uM incubated for 48 hrs by sulforhodamine B assay relative to control; type: functional; conditions: RPMI-8226, 48 h, read-out: Activity
NCI-H322M [4] = assay: Growth inhibition of human NCI-H322M cells assessed as cell growth at 0.01 uM incubated for 48 hrs by sulforhodamine B assay relative to control; type: functional; conditions: read-out: Activity
SW-620 = assay: Growth inhibition of human SW620 cells assessed as cell growth at 0.01 uM incubated for 48 hrs by sulforhodamine B assay relative to control; type: functional; conditions: SW-620, 48 h, read-out: Activity
IGROV-1 [5] = assay: Growth inhibition of human IGROV1 cells assessed as cell growth at 0.01 uM incubated for 48 hrs by sulforhodamine B assay relative to control; type: functional; conditions: IGROV-1, 48 h, read-out: Activity
OVCAR-5 = assay: Growth inhibition of human OVCAR5 cells assessed as cell growth at 0.01 uM incubated for 48 hrs by sulforhodamine B assay relative to control; type: functional; conditions: OVCAR-5, 48 h, read-out: Activity
786-0 = assay: Growth inhibition of human 786-0 cells assessed as cell growth at 0.01 uM incubated for 48 hrs by sulforhodamine B assay relative to control; type: functional; conditions: 786-0, 48 h, read-out: Activity
T47D = assay: Growth inhibition of human T47D cells assessed as cell growth at 0.01 uM incubated for 48 hrs by sulforhodamine B assay relative to control; type: functional; conditions: read-out: Activity
MDA-MB-435 = assay: Growth inhibition of human MDA-MB-435 cells assessed as cell growth at 0.1 uM incubated for 48 hrs by sulforhodamine B assay relative to control; type: functional; conditions: MDA-MB-435, 48 h, read-out: Activity
SN12C = assay: Growth inhibition of human SN12C cells assessed as cell growth at 0.1 uM incubated for 48 hrs by sulforhodamine B assay relative to control; type: functional; conditions: read-out: Activity
Hs-578T = assay: Growth inhibition of human Hs578T cells assessed as cell growth at 0.1 uM incubated for 48 hrs by sulforhodamine B assay relative to control; type: functional; conditions: read-out: Activity
MOLT-4 = assay: Growth inhibition of human MOLT4 cells assessed as cell growth at 1 uM incubated for 48 hrs by sulforhodamine B assay relative to control; type: functional; conditions: MOLT-4, 48 h, read-out: Activity
HT-29 = assay: Growth inhibition of human HT-29 cells assessed as cell growth at 1 uM incubated for 48 hrs by sulforhodamine B assay relative to control; type: functional; conditions: HT-29, 48 h, read-out: Activity
LOX IMVI [6] = assay: Growth inhibition of human LOXIMVI cells assessed as cell growth at 1 uM incubated for 48 hrs by sulforhodamine B assay relative to control; type: functional; conditions: read-out: Activity
SK-MEL-5 = assay: Growth inhibition of human SK-MEL-5 cells assessed as cell growth at 1 uM incubated for 48 hrs by sulforhodamine B assay relative to control; type: functional; conditions: SK-MEL-5, 48 h, read-out: Activity
UACC-257 = assay: Growth inhibition of human UACC257 cells assessed as cell growth at 1 uM incubated for 48 hrs by sulforhodamine B assay relative to control; type: functional; conditions: UACC-257, 48 h, read-out: Activity
A498 = assay: Growth inhibition of human A498 cells assessed as cell growth at 1 uM incubated for 48 hrs by sulforhodamine B assay relative to control; type: functional; conditions: A498, 48 h, read-out: Activity
CAKI-1 [7] = assay: Growth inhibition of human Caki1 cells assessed as cell growth at 1 uM incubated for 48 hrs by sulforhodamine B assay relative to control; type: functional; conditions: CAKI-1, 48 h, read-out: Activity
NCI-H322M [8] = assay: Growth inhibition of human NCI-H322M cells assessed as cell growth at 100 uM incubated for 48 hrs by sulforhodamine B assay relative to control; type: functional; conditions: read-out: Activity
M14 = assay: Growth inhibition of human M14 cells assessed as cell growth at 100 uM incubated for 48 hrs by sulforhodamine B assay relative to control; type: functional; conditions: M14, 48 h, read-out: Activity
OVCAR-8 = assay: Growth inhibition of human OVCAR8 cells assessed as cell growth at 100 uM incubated for 48 hrs by sulforhodamine B assay relative to control; type: functional; conditions: OVCAR-8, 48 h, read-out: Activity
CAKI-1 [9] = assay: Growth inhibition of human Caki1 cells assessed as cell growth at 100 uM incubated for 48 hrs by sulforhodamine B assay relative to control; type: functional; conditions: CAKI-1, 48 h, read-out: Activity
[10] = read-out: LC50 (the source's name)
[11] = read-out: pLC50 (the source's name) (converted)

COc1cc(Cl)cc(-c2nn(-c3cccc(NC(=O)Nc4cccc(C(F)(F)F)c4)c3)cc2-c2ccncc2)c1
GI50 (SR; read-out: GI50): 1.14 µM
CC50 (SR; [10]): > 100 µM
TGI (SR; read-out: TGI): 43.9 µM
GI50 (SR; read-out: pGI50 (converted)): 1.15 µM
CC50 (SR; [11]): > 100 µM
TGI (SR; read-out: pTGI (converted)): 4.37 µM
GI50 (NCI-H322M [1]; read-out: GI50): 2.53 µM
CC50 (NCI-H322M [1]; [10]): > 100 µM
TGI (NCI-H322M [1]; read-out: TGI): 22.9 µM
GI50 (NCI-H322M [1]; read-out: pGI50 (converted)): 2.63 µM
CC50 (NCI-H322M [1]; [11]): > 100 µM
TGI (NCI-H322M [1]; read-out: pTGI (converted)): 22.4 µM
GI50 (SNB-75; read-out: GI50): 1.76 µM
CC50 (SNB-75; [10]): > 100 µM
TGI (SNB-75; read-out: TGI): 13.9 µM
GI50 (SNB-75; read-out: pGI50 (converted)): 1.78 µM
CC50 (SNB-75; [11]): > 100 µM
TGI (SNB-75; read-out: pTGI (converted)): 13.8 µM
IC50 (U-251): 0.88 µM
GI50 (U-251; read-out: GI50): 0.679 µM
CC50 (U-251; [10]): 89.4 µM
TGI (U-251; read-out: TGI): 29.1 µM
GI50 (U-251; read-out: pGI50 (converted)): 0.891 µM
CC50 (U-251; [11]): 8.91 µM
TGI (U-251; read-out: pTGI (converted)): 2.88 µM
GI50 (LOX IMVI [2]; read-out: GI50): 1.51 µM
CC50 (LOX IMVI [2]; [10]): 82.8 µM
TGI (LOX IMVI [2]; read-out: TGI): 70.4 µM
GI50 (LOX IMVI [2]; read-out: pGI50 (converted)): 1.82 µM
CC50 (LOX IMVI [2]; [11]): 83.2 µM
TGI (LOX IMVI [2]; read-out: pTGI (converted)): 7.08 µM
GI50 (Malme-3M; read-out: GI50): 1.79 µM
CC50 (Malme-3M; [10]): > 100 µM
TGI (Malme-3M; read-out: TGI): 59.1 µM
GI50 (Malme-3M; read-out: pGI50 (converted)): 1.78 µM
CC50 (Malme-3M; [11]): > 100 µM
TGI (Malme-3M; read-out: pTGI (converted)): 5.89 µM
GI50 (SK-MEL-28; read-out: GI50): 2.53 µM
CC50 (SK-MEL-28; [10]): > 100 µM
TGI (SK-MEL-28; read-out: TGI): 12.1 µM
GI50 (SK-MEL-28; read-out: pGI50 (converted)): 2.51 µM
CC50 (SK-MEL-28; [11]): > 100 µM
TGI (SK-MEL-28; read-out: pTGI (converted)): 12 µM
GI50 (IGROV-1 [3]; read-out: GI50): 2.56 µM
CC50 (IGROV-1 [3]; [10]): > 100 µM
TGI (IGROV-1 [3]; read-out: TGI): 22.7 µM
GI50 (IGROV-1 [3]; read-out: pGI50 (converted)): 2.88 µM
CC50 (IGROV-1 [3]; [11]): > 100 µM
TGI (IGROV-1 [3]; read-out: pTGI (converted)): 22.9 µM
growth at 0.01 µM (RPMI-8226): 99%
growth at 0.01 µM (NCI-H322M [4]): 99%
growth at 0.01 µM (SW-620): 103%
growth at 0.01 µM (IGROV-1 [5]): 106%
growth at 0.01 µM (OVCAR-5): 94%
growth at 0.01 µM (786-0): 99%
growth at 0.01 µM (T47D): 97%
growth at 0.1 µM (MDA-MB-435): 97%
growth at 0.1 µM (SN12C): 96%
growth at 0.1 µM (Hs-578T): 93%
growth at 1 µM (MOLT-4): 55%
growth at 1 µM (HT-29): 65%
growth at 1 µM (LOX IMVI [6]): 72%
growth at 1 µM (SK-MEL-5): 80%
growth at 1 µM (UACC-257): 78%
growth at 1 µM (A498): 75%
growth at 1 µM (CAKI-1 [7]): 57%
growth at 100 µM (NCI-H322M [8]): -8%
growth at 100 µM (M14): -78%
growth at 100 µM (OVCAR-8): -43%
growth at 100 µM (CAKI-1 [9]): -20%

Reference: ChEMBL document CHEMBL4308841, “Synthesis, in vitro antiproliferative activity, and kinase inhibitory effects of pyrazole-containing diarylureas and diarylamides” (Eur J Med Chem, 2018)
